Activity calls are given as the source filed them.
Legend:
[1] = test system: Streptococcus sp. 'group A'; assay: Streptococcus pyogenes SK(-)GAS viability under kanamycin – luminescence, BacTiterGlo, confirmation, counter-screen for streptokinase expression inhibitor project, dose response (AID 1900); assay type: functional, organism-based
[2] = Trypanosoma cruzi growth suppression in host cells – NIH3T3 host cells, beta-gal luminescence, confirmation (AID 2044); assay type: functional, cell-based;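 also: intracellular parasites grown in NIH/3T3 mouse fibroblasts as host cells; luminescent beta-galactosidase reporter signal from transgenic T. cruzi replicating inside host cells; inhibitors lower the luminescence signal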
Galanin receptor type 2 = Galanin receptor type 2 (Homo sapiens, UniProt O43603); assay: Dose Response cell-based high-throughput screening assay to identify agonists of galanin receptor 2 (GALR2). [Related pubchem assays: 864 ]; assay type: functional
[3] = NIH3T3 cell viability loss – ATP luminescence, mouse fibroblasts, counter-screen, dose response (AID 2010); assay type: functional, cell-based;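 also: cells exposed to compound for about 90 hours before reading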
Streptococcus = assay: GAS UMAA2166 growth inhibition – luminescence, BacTiterGlo, counter-screen for streptokinase expression inhibitor project, dose response (AID 1915); assay type: functional, organism-based;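 also: potency for reduction of bacterial viability or growth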
INS1 = assay: INS-1E survival protection against cytokine death – cell-based, luminescence, retest, dose response (AID 449756); assay type: functional; conditions: Rattus norvegicus;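 also: cell death triggered by IL-1 beta plus TNF-alpha plus IFN-gamma mixture; protective hits raise ATP signal compared with cytokine alone wells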
[4] = reduction of Shn3 3'UTR-driven luciferase in osteoblasts – cell-based, Clone20 osteoblasts, firefly luciferase, cherry-picked, dose response (AID 624132); assay type: functional;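 also: firefly luciferase luminescence from reporter carrying the Shn3 3'UTR in osteoblasts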
[5] = loss of viability in HepG2 cells – cell-based, CellTiter-Glo, cherry-picked, cytotoxicity control for Shn3 inhibitor project, dose response (AID 624134); assay type: functional
[6] = non-specific 3'UTR reporter inhibition in Clone20-Shn3RL – cell-based, Renilla luciferase, cherry-picked, counter-screen for Shn3 inhibitor project, dose response (AID 624133); assay type: functional
[7] = biological target: T1, Probable nicotinate-nucleotide adenylyltransferase (Staphylococcus aureus (strain N315), UniProt P65502); assay type: functional, Staphylococcus aureus subsp. aureus N315;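 as to IC50 Mean: confirmatory dose-response retesting of NadD inhibitor hits first found in an ultra-high-throughput screen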
[8] = biological target: T1, Probable nicotinate-nucleotide adenylyltransferase; assay type: functional, Staphylococcus aureus subsp. aureus N315; conditions: read-out: IC50_Mean
[9] = viability loss in THP-1 monocytes – THP-1 cells, cytotoxicity control for Vif-APOBEC3G degradation inhibitor project, dose response (AID 1117359); assay type: functional; conditions: THP-1
[10] = HIV-1 Vif–A3G interaction blockers – biochemical, TR-FRET, GST-Vif 1-94, biotin-A3G peptide, dose response retest, primary screen (AID 1117319); assay type: functional;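 also: TR-FRET signal of purified GST-Vif binding a biotinylated A3G peptide; inhibitors lower the FRET signal by blocking Vif and A3G binding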
SUMO-activating enzyme [11] = biological target: T2, SUMO-activating enzyme (Homo sapiens, UniProt Q9UBT2); assay: blockers of UBC9-mediated SUMO conjugation – biochemical, AlphaScreen, SUMOylation inhibitor project, confirmation (AID 2018); assay type: functional
SUMO-activating enzyme [12] = biological target: T2, SUMO-activating enzyme; assay: blockers of SAE1/SAE2–UBC9 SUMO transfer – biochemical, HTRF, uHTS, primary screen (AID 2006); assay type: protein-complex assay
[13] = biological target: Aryl hydrocarbon receptor (Homo sapiens, UniProt P35869); assay: Luminescence-based cell-based high throughput dose response assay for activators of the Aryl Hydrocarbon Receptor (AHR). [Related pubchem assays: 2796 (Primary screen (AHR activators in singlicate)), 2845 (Confirmation screen (AHR activators in triplicate)), 434939 (Counterscreen (PXR activators in triplicate)), 2804 (Summary (AHR activators))]; assay type: ADME
[14] = biological target: Luciferin 4-monooxygenase (Photinus pyralis, UniProt P08659); assay: Counter Screen for Luciferase-based Assay Positives. [Related pubchem assays: 620, 618, 411 ]
HT-1080 = assay: HT1080 cell viability loss – fluorescence readout (AID 620); assay type: functional, cell-based; conditions: Homo sapiens
[15] = Late stage counterscreen results from the probe development effort to identify activators of signal transducer and activator of transcription 1 (STAT1): luminescence-based cell-based dose response assay to identify cytotoxic compounds.; assay type: functional
Troponin, cardiac muscle = Troponin, cardiac muscle (Homo sapiens, UniProt P19429+P45379+P63316); assay: Fluorescence-based biochemical high throughput dose response assay for activators of the calcium sensitivity of cardiac Regulated Thin Filaments (RTF). [Related pubchem assays (depositor defined):AID493008, AID493018, AID504382, AID504383]; assay type: protein-complex assay
[16] = biological target: T3, Rac GTPase-activating protein 1 (Homo sapiens, UniProt Q9H0H5); assay: blockers of MgcRacGAP-driven Rac1 GTP hydrolysis – biochemical, ADP Hunter fluorescence, primary and confirmatory, confirmation (AID 624330); assay type: functional
T3 sequence (Q9H0H5 whole entry): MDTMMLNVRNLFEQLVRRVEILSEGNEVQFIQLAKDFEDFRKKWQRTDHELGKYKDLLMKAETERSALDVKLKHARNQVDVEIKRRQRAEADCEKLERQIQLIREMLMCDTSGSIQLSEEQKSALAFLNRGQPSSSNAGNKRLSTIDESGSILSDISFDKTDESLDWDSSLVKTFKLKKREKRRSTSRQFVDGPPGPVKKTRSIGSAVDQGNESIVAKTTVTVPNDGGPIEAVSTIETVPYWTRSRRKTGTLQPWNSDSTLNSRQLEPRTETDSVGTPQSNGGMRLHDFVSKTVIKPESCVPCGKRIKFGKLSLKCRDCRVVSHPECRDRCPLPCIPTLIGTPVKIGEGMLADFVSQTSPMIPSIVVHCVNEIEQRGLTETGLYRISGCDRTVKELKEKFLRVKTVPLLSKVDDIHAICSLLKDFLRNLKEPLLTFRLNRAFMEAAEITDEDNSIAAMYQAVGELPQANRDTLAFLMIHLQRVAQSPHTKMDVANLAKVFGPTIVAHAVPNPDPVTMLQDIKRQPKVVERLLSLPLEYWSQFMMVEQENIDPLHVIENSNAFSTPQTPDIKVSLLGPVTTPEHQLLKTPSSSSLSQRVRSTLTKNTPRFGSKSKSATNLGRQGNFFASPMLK

Estrogen receptor = biological target: T4, Estrogen receptor (Homo sapiens, UniProt P03372);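 also: potency for inhibiting coactivator peptide recruitment to the receptor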
T4 sequence (P03372 whole entry): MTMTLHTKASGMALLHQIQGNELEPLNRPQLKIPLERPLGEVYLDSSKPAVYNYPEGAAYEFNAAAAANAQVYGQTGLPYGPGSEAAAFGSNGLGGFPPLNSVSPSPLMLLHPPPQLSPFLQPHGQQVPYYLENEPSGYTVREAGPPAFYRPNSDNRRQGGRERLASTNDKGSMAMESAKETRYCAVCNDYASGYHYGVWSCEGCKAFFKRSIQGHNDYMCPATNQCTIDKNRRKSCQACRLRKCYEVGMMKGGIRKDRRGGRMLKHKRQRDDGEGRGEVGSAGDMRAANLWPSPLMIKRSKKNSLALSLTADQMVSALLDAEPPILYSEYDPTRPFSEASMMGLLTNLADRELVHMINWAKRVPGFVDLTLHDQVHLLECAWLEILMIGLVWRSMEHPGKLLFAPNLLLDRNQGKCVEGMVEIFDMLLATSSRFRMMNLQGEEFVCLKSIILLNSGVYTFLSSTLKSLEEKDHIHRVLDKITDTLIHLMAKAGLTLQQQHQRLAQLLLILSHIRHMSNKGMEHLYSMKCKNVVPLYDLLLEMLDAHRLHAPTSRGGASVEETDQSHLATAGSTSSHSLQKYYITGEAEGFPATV

Estrogen receptor beta [17] = biological target: T5, Estrogen receptor beta (Homo sapiens, UniProt Q92731);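 also: recombinant ER-beta bound to coactivator SRC1 peptide in presence of estradiol agonist; inhibitors block coactivator peptide binding and lower the FRET signal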
Estrogen receptor beta [18] = biological target: T5, Estrogen receptor beta; assay: blockers of SRC-3 recruitment to ERβ – biochemical, ELISA, streptavidin-HRP readout, orthogonal assay, confirmation (AID 1060)
[19] = biological target: Protein-tyrosine kinase 2-beta (Homo sapiens, UniProt Q14289);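 also: potency of inhibitors of PYK2 kinase phosphorylation of poly-GT substrate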
[20] = biological target: Transitional endoplasmic reticulum ATPase (Homo sapiens, UniProt P55072, C522A); assay: Luminescence counterscreen assay for p97 inhibitors: dose response biochemical high throughput screening assay to identify inhibitors of the C522A mutant p97 ATPase: synthesized compounds. [Related pubchem assays: 1481, 1517, 1551 ]
[21] = biological target: Transitional endoplasmic reticulum ATPase (Homo sapiens, UniProt P55072); assay: Luminescence dose response biochemical high throughput screening assay for inhibitors of the p97 ATPase: synthesized compounds. [Related pubchem assays: 1481, 1517 ]
[22] = M. tuberculosis H37Rv growth inhibitors, H37Rv strain (AID 1626); assay type: functional
[23] = biological target: T6, Calpain-2 catalytic subunit (Sus scrofa, UniProt P43367); assay: m-calpain protease blockers, concentration series – biochemical, fluorogenic peptide substrate, dose response (AID 1420); assay type: functional
T6 sequence (P43367 whole entry): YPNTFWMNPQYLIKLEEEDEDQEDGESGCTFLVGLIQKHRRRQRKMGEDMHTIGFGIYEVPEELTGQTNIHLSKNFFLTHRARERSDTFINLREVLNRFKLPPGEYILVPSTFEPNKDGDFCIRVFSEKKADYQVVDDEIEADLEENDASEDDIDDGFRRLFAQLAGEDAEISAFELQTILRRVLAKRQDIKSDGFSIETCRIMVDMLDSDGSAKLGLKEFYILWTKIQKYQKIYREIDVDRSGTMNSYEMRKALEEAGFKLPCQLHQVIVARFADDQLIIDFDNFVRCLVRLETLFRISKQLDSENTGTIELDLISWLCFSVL

[24] = biological target: Voltage-gated inwardly rectifying potassium channel KCNH2 (Homo sapiens, UniProt Q12809); assay: concentration-dependent hERG rescue from blockers – cell-based, thallium flux, dose response (AID 2121); assay type: ADME
[25] = biological target: 5-hydroxytryptamine receptor 1A (Homo sapiens, UniProt P08908); assay type: functional

T2 sequence (Q9UBE0 whole entry): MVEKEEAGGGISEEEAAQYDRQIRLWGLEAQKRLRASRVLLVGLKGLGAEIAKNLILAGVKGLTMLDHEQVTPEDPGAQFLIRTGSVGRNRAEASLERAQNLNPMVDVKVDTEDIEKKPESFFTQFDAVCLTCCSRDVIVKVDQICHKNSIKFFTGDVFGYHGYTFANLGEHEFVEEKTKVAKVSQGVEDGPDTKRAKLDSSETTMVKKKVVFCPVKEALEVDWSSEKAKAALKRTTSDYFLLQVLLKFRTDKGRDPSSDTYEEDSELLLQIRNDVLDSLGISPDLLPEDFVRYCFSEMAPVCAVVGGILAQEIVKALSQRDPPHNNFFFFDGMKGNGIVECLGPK
T2 sequence (Q9UBT2 whole entry): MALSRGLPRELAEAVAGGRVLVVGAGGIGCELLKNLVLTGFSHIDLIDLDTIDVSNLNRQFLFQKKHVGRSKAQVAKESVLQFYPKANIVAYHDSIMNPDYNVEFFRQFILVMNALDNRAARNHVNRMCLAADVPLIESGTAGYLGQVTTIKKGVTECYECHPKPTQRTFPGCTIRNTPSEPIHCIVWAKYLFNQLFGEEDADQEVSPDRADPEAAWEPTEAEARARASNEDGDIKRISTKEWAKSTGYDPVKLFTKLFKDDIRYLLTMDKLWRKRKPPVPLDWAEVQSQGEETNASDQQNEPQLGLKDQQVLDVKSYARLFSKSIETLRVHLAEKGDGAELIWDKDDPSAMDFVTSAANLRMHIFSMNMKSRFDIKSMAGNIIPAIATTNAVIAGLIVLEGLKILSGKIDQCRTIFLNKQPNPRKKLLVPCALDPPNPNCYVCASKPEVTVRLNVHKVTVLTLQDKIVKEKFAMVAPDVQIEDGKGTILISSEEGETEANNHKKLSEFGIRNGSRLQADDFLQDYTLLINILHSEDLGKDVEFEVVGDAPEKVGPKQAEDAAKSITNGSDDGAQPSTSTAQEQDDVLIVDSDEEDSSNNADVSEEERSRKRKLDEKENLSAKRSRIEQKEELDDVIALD
T5 sequence (Q92731 whole entry): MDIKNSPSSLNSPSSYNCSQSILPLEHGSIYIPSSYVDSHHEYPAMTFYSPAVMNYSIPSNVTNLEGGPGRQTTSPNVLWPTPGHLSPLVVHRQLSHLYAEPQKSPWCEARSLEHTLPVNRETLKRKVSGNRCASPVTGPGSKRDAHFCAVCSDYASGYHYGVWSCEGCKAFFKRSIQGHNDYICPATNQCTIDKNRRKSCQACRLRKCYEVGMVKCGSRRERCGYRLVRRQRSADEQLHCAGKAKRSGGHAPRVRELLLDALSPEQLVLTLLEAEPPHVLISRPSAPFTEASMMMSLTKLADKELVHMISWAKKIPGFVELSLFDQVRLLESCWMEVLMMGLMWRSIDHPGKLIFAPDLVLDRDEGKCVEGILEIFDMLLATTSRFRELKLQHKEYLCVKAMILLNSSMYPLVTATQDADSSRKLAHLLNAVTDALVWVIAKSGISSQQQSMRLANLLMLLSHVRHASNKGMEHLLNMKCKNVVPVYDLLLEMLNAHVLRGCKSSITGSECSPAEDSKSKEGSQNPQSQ
T1 sequence (P65502 whole entry): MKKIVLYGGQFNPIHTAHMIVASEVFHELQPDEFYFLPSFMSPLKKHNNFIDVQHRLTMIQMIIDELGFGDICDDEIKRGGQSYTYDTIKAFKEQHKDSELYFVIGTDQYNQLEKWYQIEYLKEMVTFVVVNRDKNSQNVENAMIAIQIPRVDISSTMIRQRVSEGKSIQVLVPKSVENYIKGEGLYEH
Sequence of Transitional endoplasmic reticulum ATPase (Homo sapiens, UniProt P55072, C522A) (P55072 2-806 C522A limits assumed): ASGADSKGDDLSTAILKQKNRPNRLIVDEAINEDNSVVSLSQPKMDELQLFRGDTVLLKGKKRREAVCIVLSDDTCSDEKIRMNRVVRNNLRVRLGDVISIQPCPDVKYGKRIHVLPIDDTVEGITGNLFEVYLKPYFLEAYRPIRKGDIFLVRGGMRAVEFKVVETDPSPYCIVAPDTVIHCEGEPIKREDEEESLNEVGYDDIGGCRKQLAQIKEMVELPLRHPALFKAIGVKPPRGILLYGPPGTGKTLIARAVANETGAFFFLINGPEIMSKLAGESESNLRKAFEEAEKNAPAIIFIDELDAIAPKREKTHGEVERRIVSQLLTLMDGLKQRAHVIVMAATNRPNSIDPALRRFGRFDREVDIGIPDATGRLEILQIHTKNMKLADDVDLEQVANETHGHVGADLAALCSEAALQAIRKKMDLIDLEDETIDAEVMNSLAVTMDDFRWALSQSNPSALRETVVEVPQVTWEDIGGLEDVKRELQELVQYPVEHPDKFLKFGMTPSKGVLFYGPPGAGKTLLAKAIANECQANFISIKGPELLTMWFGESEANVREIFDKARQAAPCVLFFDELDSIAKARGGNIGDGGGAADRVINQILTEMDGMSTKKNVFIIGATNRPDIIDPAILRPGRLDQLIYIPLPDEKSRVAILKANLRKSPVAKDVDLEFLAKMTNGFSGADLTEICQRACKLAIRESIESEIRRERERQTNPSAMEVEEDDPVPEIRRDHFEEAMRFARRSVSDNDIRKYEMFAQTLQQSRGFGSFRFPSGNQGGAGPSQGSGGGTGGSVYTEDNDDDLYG
Sequence of Aryl hydrocarbon receptor (P35869 whole entry): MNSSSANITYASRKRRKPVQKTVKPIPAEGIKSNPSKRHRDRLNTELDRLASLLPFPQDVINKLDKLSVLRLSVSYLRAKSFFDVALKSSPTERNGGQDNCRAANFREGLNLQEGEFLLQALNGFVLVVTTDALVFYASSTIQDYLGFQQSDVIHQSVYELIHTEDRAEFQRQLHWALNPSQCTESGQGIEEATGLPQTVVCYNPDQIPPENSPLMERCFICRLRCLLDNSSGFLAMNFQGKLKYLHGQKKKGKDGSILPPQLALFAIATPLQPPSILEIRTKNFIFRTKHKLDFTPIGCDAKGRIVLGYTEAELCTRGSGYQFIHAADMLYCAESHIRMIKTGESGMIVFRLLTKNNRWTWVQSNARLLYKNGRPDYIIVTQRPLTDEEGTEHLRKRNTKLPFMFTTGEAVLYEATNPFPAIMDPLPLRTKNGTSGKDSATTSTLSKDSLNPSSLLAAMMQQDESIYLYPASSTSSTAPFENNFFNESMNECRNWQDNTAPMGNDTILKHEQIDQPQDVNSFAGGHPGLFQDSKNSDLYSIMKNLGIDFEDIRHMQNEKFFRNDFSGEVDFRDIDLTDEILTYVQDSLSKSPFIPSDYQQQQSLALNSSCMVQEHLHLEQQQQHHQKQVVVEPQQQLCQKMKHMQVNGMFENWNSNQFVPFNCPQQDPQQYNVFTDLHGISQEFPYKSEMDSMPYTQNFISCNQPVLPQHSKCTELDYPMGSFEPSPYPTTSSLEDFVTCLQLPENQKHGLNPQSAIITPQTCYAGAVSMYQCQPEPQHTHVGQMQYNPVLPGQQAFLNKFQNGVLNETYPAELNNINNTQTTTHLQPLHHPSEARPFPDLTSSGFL
Sequence of Luciferin 4-monooxygenase (P08659 whole entry): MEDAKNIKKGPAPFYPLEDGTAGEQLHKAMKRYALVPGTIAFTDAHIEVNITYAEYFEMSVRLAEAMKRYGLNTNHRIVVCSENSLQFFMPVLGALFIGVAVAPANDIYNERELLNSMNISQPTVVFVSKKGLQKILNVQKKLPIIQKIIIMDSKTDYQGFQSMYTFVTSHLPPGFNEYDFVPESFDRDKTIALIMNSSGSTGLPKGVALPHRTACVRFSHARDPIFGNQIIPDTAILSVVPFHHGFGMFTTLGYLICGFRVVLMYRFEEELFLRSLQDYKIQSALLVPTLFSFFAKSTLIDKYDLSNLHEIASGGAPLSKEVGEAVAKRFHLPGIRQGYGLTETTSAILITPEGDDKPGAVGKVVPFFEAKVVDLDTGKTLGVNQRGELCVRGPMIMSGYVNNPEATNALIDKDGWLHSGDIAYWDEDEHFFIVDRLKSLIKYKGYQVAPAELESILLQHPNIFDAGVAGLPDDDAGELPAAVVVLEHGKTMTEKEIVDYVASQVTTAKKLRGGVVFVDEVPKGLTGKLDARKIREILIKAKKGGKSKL
Sequence of Transitional endoplasmic reticulum ATPase (Homo sapiens, UniProt P55072) (P55072 whole entry): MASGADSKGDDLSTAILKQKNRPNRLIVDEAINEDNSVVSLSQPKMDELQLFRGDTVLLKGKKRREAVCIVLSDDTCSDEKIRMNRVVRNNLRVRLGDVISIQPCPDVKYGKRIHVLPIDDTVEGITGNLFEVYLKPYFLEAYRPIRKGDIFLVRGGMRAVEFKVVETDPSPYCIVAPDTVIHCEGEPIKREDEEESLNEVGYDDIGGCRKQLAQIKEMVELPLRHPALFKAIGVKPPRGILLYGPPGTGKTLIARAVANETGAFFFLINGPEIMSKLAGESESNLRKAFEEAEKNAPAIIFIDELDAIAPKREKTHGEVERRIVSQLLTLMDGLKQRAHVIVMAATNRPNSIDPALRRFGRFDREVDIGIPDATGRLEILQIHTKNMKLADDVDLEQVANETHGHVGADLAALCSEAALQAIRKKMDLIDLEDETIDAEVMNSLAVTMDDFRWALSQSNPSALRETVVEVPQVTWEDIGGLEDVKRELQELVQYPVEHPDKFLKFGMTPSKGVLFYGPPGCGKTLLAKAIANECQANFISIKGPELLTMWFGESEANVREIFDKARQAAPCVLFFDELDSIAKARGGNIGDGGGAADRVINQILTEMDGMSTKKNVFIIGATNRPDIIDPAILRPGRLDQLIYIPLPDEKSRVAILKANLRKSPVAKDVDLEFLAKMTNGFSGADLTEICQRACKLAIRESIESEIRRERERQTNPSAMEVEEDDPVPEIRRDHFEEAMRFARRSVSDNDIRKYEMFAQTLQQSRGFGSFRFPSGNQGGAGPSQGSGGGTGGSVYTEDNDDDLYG

Cc1cccc2sc(NNC(=O)c3ccc(S(=O)(=O)N4CC(C)CC(C)C4)cc3)nc12 (stereo unspecified)
EC50 [1]: 1.18 µM (active)
EC50 [2]: 1.22 µM (active)
EC50 (Galanin receptor type 2): > 55.7 µM (not active)
EC50 [3]: 7.47 µM (active)
EC50 (Streptococcus): 4.98 µM (active)
AC50 (INS1): 1.73 µM (active)
AC50 [4]: 2.57 µM (active)
AC50 [5]: 5.61 µM (active)
AC50 [6]: 5.72 µM (active)
IC50 [7]: 8.16 µM (active)
IC50 [8]: 42.1 µM (active)
CC50 [9]: 2.27 µM (active)
IC50 [10]: > 100 µM (active)

O=c1[nH]/c(=N\c2ccc(Br)cc2)sc2ccc([N+](=O)[O-])cc12
IC50 (SUMO-activating enzyme [11]): 34.6 µM (active)
IC50 (SUMO-activating enzyme [12]): 15.9 µM (active)
EC50 [13]: 5.11 µM (active)

N#C/C(=C\c1ccc(N2CCOCC2)o1)c1nc2ccccc2[nH]1
EC50 [14]: > 100 µM (not active)
EC50 (HT-1080): > 50 µM (not active)
IC50 [15]: > 55.7 µM (not active)
EC50 (Troponin, cardiac muscle): 0.5 µM (active)
IC50 [16]: 12.2 µM (active)

CC(=O)c1ccc(NCC(=O)N2CCN(c3ccccc3)CC2)cc1
IC50 (Estrogen receptor): 5.02 µM (active)
IC50 (Estrogen receptor beta [17]): 2.64 µM (active)
IC50 (Estrogen receptor beta [18]): 37.1 µM (not active)
IC50 [19]: > 69.5 µM (not active)

N#Cc1ccc(Nc2nc(-c3cccc(Br)c3)cs2)cc1
IC50 [20]: > 50 µM (not active)
IC50 [21]: > 50 µM (not active)

Cn1cc(CN2CCN(c3ccc(Cl)cn3)CC2)c(-c2ccccc2F)n1
IC50 [22]: > 100 µM (active)

S=c1[nH]nc(CSc2nc3ccccc3s2)n1C1CCCCC1
IC50 [23]: 14.3 µM (not active)
EC50 [24]: 9.55 µM (active)

C1=C(c2c[nH]c3ccccc23)CCNC1
EC50 [25]: > 50 µM (not active)
